For series [1], the target named is T1, ATP-dependent translocase ABCB1 (Homo sapiens, UniProt P08183). The series can be described thus: TP_TRANSPORTER: inhibition of Azidopine photoaffinity labelling (Azidopine: 0.2 uM, trans-flupenthioxol: 1 uM) in membranes from KB/V20C cells. It is filed as functional, cell membranes, Membrane.
In series [2] the target is T1, ATP-dependent translocase ABCB1. The series can be described thus: TP_TRANSPORTER: increase in Doxorubicin intracellular accumulation (Doxorubicin: 0-20 uM, trans-flupenthixol: 5 uM) in MCF-7/ADR cells. Format: functional, cell-based. The following applies: nci/adr-res.

T1 sequence (P08183 whole entry): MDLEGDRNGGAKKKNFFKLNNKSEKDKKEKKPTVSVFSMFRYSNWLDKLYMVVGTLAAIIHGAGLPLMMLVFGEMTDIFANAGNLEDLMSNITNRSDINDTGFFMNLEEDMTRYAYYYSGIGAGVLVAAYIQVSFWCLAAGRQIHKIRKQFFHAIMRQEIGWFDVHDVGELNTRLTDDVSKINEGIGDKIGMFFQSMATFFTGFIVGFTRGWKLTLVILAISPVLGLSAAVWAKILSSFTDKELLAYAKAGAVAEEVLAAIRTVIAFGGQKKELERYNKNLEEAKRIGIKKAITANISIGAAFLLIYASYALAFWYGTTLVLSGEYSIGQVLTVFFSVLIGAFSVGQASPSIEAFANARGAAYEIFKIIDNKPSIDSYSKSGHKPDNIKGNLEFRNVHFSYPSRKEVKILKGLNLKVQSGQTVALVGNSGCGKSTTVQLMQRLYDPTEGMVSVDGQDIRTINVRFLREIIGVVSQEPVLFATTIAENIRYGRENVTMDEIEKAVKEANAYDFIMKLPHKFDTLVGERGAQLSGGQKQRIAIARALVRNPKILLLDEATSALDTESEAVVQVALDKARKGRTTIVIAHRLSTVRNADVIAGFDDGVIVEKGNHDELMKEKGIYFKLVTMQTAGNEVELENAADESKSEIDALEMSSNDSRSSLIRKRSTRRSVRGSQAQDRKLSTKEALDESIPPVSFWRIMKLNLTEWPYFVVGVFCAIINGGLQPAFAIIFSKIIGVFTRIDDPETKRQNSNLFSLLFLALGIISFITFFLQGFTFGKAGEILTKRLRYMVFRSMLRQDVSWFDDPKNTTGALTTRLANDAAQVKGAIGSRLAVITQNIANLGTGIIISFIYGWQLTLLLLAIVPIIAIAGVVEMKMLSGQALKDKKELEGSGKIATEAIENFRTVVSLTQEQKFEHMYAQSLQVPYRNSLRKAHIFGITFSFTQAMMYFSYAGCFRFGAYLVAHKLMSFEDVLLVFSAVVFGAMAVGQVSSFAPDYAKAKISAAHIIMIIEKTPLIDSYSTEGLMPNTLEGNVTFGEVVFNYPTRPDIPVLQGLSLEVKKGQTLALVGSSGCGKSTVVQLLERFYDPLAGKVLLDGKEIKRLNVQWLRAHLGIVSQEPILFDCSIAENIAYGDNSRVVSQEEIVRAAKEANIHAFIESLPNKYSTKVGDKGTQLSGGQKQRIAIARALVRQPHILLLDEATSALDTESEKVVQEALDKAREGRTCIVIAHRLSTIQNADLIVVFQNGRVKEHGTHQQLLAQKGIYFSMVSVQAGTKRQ

On to `OCCN1CCN(CC/C=C2\c3ccccc3Sc3ccc(C(F)(F)F)cc32)CC1` [E-FLUPENTIXOL], for which the Activity entry in series [1] is “inhibitor [+]”; in series [2], “inhibitor [2 to 3-fold]”.
